According to US20230348459A1, “PYRROLIDINE COMPOUND AND USE THEREOF” (SIMCERE PHARMACEUTICAL CO., LTD., priority 2020, published 2023):

Tests used:
CYP2C9 = CYP2C9 (Homo sapiens (Human), UniProt P11712); assay: Inhibition of CYP2C9 enzymatic activity in human liver microsomes; assay type: in vitro ADME; conditions: substrate diclofenac
Procedure: The inhibition of CYP2C9 and CYP2D6 enzymatic activities by the compounds of the present invention was determined by the following test method.
• 1. Human liver microsomes (Corning 452117) • 2. NADPH (Solarbio 705Y021) • 3. Positive substrates diclofenac (Sigma SLBV3438), dextromethorphan (TRC 3-EDO-175-1) and midazolam (Cerilliant FE01161704) • 4. Positive inhibitors sulfaphenazole (D. Ehrenstorfer GmbH 109012), quinidine (TCI WEODL-RE) and ketoconazole (Sigma 100M1091V) • 5. AB Sciex Triple Quad 5500 liquid chromatography-mass spectrometry
1. Preparation of 100 mM phosphate buffered saline (PBS): 7.098 g of Na2HPO4 was weighed, 500 mL of pure water was added and subjected to ultrasonic dissolution to obtain solution A. 3.400 g of KH2PO4 was weighed, 250 mL of pure water was added and subjected to ultrasonic dissolution to obtain solution B. Solution A was placed on a stirrer and solution B was slowly added until pH reaches 7.4 to prepare 100 mM PBS buffer.
2. Preparation of 10 mM NADPH solution with 100 mM PBS buffer. 10 mM stock solution of compounds of the invention was diluted with DMSO to obtain a 200× concentration of compound working solution (6000, 2000, 600, 200, 60, 20, 0 µM). The stock solution of positive inhibitors was diluted with DMSO to obtain a 200× concentration of positive inhibitor working solution (sulfaphenazole, 1000, 300, 100, 30, 10, 3, 0 µM; quinidine/ketoconazole, 100, 30, 10, 3, 1, 0.3, 0 µM). A 200 × concentration of substrate working solution (120 µM of diclofenac, 400 µM of dextromethorphan, and 200 µM of midazolam) was prepared in water, acetonitrile, or acetonitrile/methanol.
3. 2 µl of 20 mg/ml liver microsome solution, 1 µl of substrate working solution, 1 µl of compound working solution and 176 µl of PBS buffer were taken, mixed uniformly, and pre-incubated in a 37° C. water bath for 15 minutes. […]
The IC50 values of the compounds of the present invention against CYP2C9 and CYP2D6 were calculated by Excel XLfit 5.3.1.3.

[1] = Plasma protein binding rate, equilibrium dialysis, dog plasma; assay type: in vitro ADME; conditions: pH 7.4, Beagle dog plasma, 6 hours dialysis
Procedure: The protein binding rate of the compounds of the present invention in the plasma of five species (human, monkey, dog, rat and mouse) was determined by the following test method.
• 1. Human plasma (BioIVT), beagle dog plasma (BioIVT), SD rat plasma (BioIVT), CD-1 mouse plasma (BioIVT); • 2. 96-well equilibrium dialysis plate (HTDialysis LLC, Gales Ferry, CT, HTD96B), equilibrium dialysis membrane (MWCO 12-14 K, #1101); • 3. Positive control compound warfarin; • 4. ABI QTrap 5500 liquid chromatography-mass spectrometry.
1. Preparation of a buffer with a concentration of 100 mM sodium phosphate and 150 mM NaCl: an alkaline solution with a concentration of 14.2 g/L Na2HPO4 and 8.77 g/L NaCl was prepared with ultrapure water, and an acidic solution with a concentration of 12.0 g/L NaH2PO4 and 8.77 g/L NaCl was prepared with ultrapure water. The alkaline solution was titrated with the acidic solution to pH 7.4 to prepare a buffer with a concentration of 100 mM sodium phosphate and 150 mM NaCl.
2. Preparation of dialysis membrane: the dialysis membrane was soaked in ultrapure water for 60 minutes to separate the membrane into two pieces, then soaked in 20% ethanol for 20 minutes, and finally soaked in the buffer used for dialysis for 20 minutes.
3. Preparation of plasma: the frozen plasma was quickly thawed at room temperature, then the plasma was centrifuged at 3,220 g at 4° C. for 10 min to remove clots, and the supernatant was collected into a new centrifuge tube. The pH of the plasma was measured and recorded, and the plasma with pH of 7-8 was used.
3. Preparation of compound-containing plasma samples: 10 mM stock solution of compounds of the present invention or positive control compounds were diluted with DMSO to obtain 200 µM working solution. […]
The peak areas of the compounds on the buffer side and the plasma side were determined. […]
All the data was calculated by the Microsoft Excel software. The plasma protein binding rate values of the compounds of the present invention were calculated.

Sequence of CYP2C9 (P11712 whole entry): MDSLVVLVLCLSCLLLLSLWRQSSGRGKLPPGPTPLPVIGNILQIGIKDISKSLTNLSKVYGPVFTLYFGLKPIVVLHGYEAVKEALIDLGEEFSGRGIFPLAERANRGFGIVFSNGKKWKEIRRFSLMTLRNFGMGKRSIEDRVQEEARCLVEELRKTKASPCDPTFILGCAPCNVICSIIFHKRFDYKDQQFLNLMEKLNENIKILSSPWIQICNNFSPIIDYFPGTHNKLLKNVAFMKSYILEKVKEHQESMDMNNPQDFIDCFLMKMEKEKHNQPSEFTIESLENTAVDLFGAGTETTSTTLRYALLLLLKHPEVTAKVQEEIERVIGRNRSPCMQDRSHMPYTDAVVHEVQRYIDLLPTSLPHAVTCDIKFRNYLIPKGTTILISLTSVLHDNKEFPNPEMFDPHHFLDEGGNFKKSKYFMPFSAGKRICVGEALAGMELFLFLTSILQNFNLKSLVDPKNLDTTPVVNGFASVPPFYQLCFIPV

| Compound | IC50 (CYP2C9) [µM] | fraction unbound at 6 h, 1 µM [1] |
| --- | --- | --- |
| C[C@@H]1Cc2c([nH]c3ccccc23)C(c2c(F)cc(N[C@H]3CCN(CCCF)C3)cc2F)N1CC(F)(F)F (stereo in doubt) [Example 4, (S)-N-(3,5-difluoro-4-((1S,3R)-3-methyl-2-(2,2,2-trifluoroethyl)-2,3,4,9-tetrahydro-1H-pyridino[3,4-b]indol-1-yl)phenyl)-1-(3-fluoropropyl)pyrrolidin-3-amine] | 20 | 0.002 |
| C[C@@H]1Cc2c([nH]c3ccccc23)C(c2c(F)cc(N[C@H]3CCN(CCCF)C3)cc2F)N1CC(F)(F)CO (stereo in doubt) [Example 7, 3-((1S,3R)-1-(2,6-difluoro-4-(((S)-1-(3-fluoropropyl)pyrrolidin-3-yl)amino)phenyl)-3-methyl-3,4-dihydro-1H-pyridino [3,4-b]indole-2(9H)-yl)-2,2-difluoropropane-1-ol] | 8 | 0.012 |
| C[C@@H]1Cc2c([nH]c3ccccc23)[C@@H](c2ccc(N[C@H]3CCN(CCCF)C3)cn2)N1CC(F)(F)F [Example 3, N-((S)-1-(3-fluoropropyl)pyrrolidin-3-yl)-6-((1S,3R)-3-methyl-2-(2,2,2-trifluoroethyl)-2,3,4,9-tetrahydro-1H-pyridino[3,4-b]indol-1-yl)pyridine-3-amine] | > 30 | 0.013 |
